The values that follow come from patent US6444692B1, “Fungicidal mixtures” (BASF Aktiengesellschaft, priority 1997, dated 2002).

For the test, the system named is powdery mildew of wheat (Erysiphe graminis forma specialis tritici). In words: Activity against powdery mildew of wheat (protective spray on wheat seedlings, visual % infection of leaf area after 7 days). It counts as in vivo. The conditions noted are these: single active ingredient, wheat seedlings cv. Frühgold. The text has this: The active ingredients, separately or together, are formulated as a 10% emulsion in a mixture of 70% by weight of cyclohexanone, 20% by weight of Nekanil® LN (Lutensol® AP6, wetting agent having emulsifying and dispersing action, based on ethoxylated alkylphenols) and 10% by weight of Emulphor® EL (Emulan® EL, emulsifier based on ethoxylated fatty alcohols) and diluted with water to give the desired concentration.
Leaves of wheat seedlings cv. “Frühgold” which had been grown in pots were sprayed to runoff point with an aqueous preparation of active ingredient which had been prepared from a stock solution comprising 10% of active ingredient, 63% of cyclohexanone and 27% of emulsifier and, 24 hours after the spray coating had dried on, dusted with spores of powdery mildew of wheat (Erysiphe graminis forma specialis tritici). The test plants were subsequently placed in a greenhouse at from […] and a relative atmospheric humidity of 60 to 90%. After 7 days, the extent of mildew development was determined visually as % infection of the total leaf area.
Evaluation is carried out by determining the infected leaf areas in percent. These percentages are converted into efficacies. The expected efficacies of the mixtures of the active ingredients are determined using Colby's formula [R. S. Colby, Weeds 15, 20-22 (1967)] and compared with the observed efficacies. […]
The efficacy (E) is calculated as follows using Abbot's formula: […]
α corresponds to the fungal infection of the treated plants in % and
β corresponds to the fungal infection of the untreated (control) plants in %
An efficacy of 0 means that the infection level of the treated plants corresponds to that of the untreated control plants; an efficacy of 100 means that the treated plants were not infected.

For `COC(=O)N(OC)c1ccccc1COc1ccn(-c2ccc(Cl)cc2)n1` [Compound I.32], the “Efficacy in % of the untreated control” value is, setting by setting: (0.125 ppm in the spray liquor) 0%; (0.5 ppm in the spray liquor) 10%. On to `CNC(=O)/C(=N\OC)c1ccccc1COc1cc(C)ccc1C` [Compound III], for which, where the note is “0.125 ppm in the spray liquor”, the “Efficacy in % of the untreated control” value is 20%. Take `CO/N=C(\C(=O)OC)c1ccccc1COc1ccccc1C` [Compound II]: the “Efficacy in % of the untreated control” value (0.125 ppm in the spray liquor) amounted to 0%.
